≈ marks a conversion by molar mass, not a printed value.
Assays:
Assay in all cases: ≥ marks a high value that may be exact or a test limit, other limits are often not marked, values filed in µg/mL are converted to µM
[1] = test system: Bacillus subtilis ATCC 23857
[2] = test system: Acinetobacter baumannii ATCC 19606
[3] = test system: Pseudomonas aeruginosa ATCC 27853
[4] = test system: Escherichia coli ATCC 25922
[5] = test system: Klebsiella pneumoniae ATCC 700603
[6] = test system: Staphylococcus epidermidis ATCC 12228
[7] = test system: Enterococcus faecalis ATCC 29212
[8] = test system: Staphylococcus aureus ATCC 25923
[9] = test system: Candida albicans ATCC 2002
[10] = test system: Pseudomonas aeruginosa CMCCB 10104
[11] = test system: Staphylococcus aureus ATCC 2592
[12] = test system: Staphylococcus aureus ATCC 6538
[13] = test system: Pseudomonas aeruginosa ATCC 9027
Bacillus subtilis = test system: Bacillus subtilis

SMILES: CC[C@H](C)[C@H](NC(=O)[C@H](CCCN=C(N)N)NC(=O)[C@H](CCCCN)NC(=O)[C@H](Cc1ccccc1)NC(=O)[C@H](Cc1c[nH]c2ccccc12)NC(=O)[C@@H](N)CCCCN)C(=O)N[C@@H](CCCCN)C(=O)N[C@H](C(=O)N[C@@H](Cc1ccccc1)C(=O)N[C@@H](Cc1c[nH]c2ccccc12)C(N)=O)[C@@H](C)O [KWFKRIKTFW]
- MIC [1]: 16 µM (≈ 23 µg/mL)
- MIC [2]: 128 µM (≈ 184 µg/mL)
- MIC [3]: 8 µM (≈ 11.5 µg/mL)
- MIC [4]: 16 µM (≈ 23 µg/mL)
- MIC [5]: 32 µM (≈ 46 µg/mL)
- MIC [6]: 128 µM (≈ 184 µg/mL)
- MIC [7]: 64 µM (≈ 92.1 µg/mL)
- MIC [8]: 16 µM (≈ 23 µg/mL)

SMILES: CC[C@H](C)[C@H](NC(=O)[C@H](C)NC(=O)[C@H](CC(C)C)NC(=O)[C@H](CC(N)=O)NC(=O)[C@H](CCCCN)NC(=O)[C@H](CC(C)C)NC(=O)[C@@H](NC(=O)[C@H](CC(=O)O)NC(=O)[C@H](CC(C)C)NC(=O)[C@H](Cc1ccccc1)NC(=O)[C@@H](N)CO)[C@@H](C)O)C(=O)N[C@@H](CO)C(=O)N[C@@H](C)C(=O)N[C@@H](C)C(=O)N[C@@H](CCCCN)C(=O)NCC(=O)N[C@@H](C)C(=O)NCC(=O)N[C@@H](CCC(N)=O)C(=O)N[C@@H](CO)C(=O)N[C@H](C(=O)N[C@@H](CC(C)C)C(=O)N[C@@H](CO)C(=O)N[C@H](C(=O)N[C@@H](CC(C)C)C(=O)N[C@@H](CO)C(=O)N[C@H]1CSSC[C@@H](C(=O)O)NC(=O)[C@H]([C@@H](C)O)NC(=O)[C@H](CCCCN)NC(=O)[C@H](CO)NC(=O)[C@H](CC(C)C)NC(=O)[C@H](CCCCN)NC1=O)[C@@H](C)O)C(C)C [SFLDTLKNLAISAAKGAGQSVLSTLSCKLSKTC]
- MIC [9]: 3.9 µM (≈ 13.1 µg/mL)
- MIC [4]: 3.9 µM (≈ 13.1 µg/mL)
- MIC [8]: 3.9 µM (≈ 13.1 µg/mL)
- MIC [10]: 3.9 µM (≈ 13.1 µg/mL)

SMILES: CC[C@H](C)[C@H](NC(=O)[C@@H](N)Cc1ccccc1)C(=O)N1CCC[C@H]1C(=O)N[C@@H](CC(C)C)C(=O)N[C@H](C(=O)N[C@@H](CO)C(=O)NCC(=O)N[C@@H](CC(C)C)C(=O)N[C@@H](Cc1ccccc1)C(=O)N[C@@H](CO)C(=O)N[C@@H](CCCN=C(N)N)C(=O)N[C@@H](CC(C)C)C(=O)N[C@@H](CC(C)C)C(N)=O)C(C)C [FIPLVSGLFSRLL]
- MIC [9]: 8.55 µM (≈ 12.5 µg/mL)
- MIC [4]: 8.55 µM (≈ 12.5 µg/mL)
- MIC [11]: 4.28 µM (≈ 6.25 µg/mL)

SMILES: CC[C@H](C)[C@H](NC(=O)[C@H](CC(N)=O)NC(=O)[C@H](CCCCN)NC(=O)[C@H](CCCCN)NC(=O)[C@@H]1CCCN1C(=O)[C@H](Cc1ccccc1)NC(=O)[C@@H](NC(=O)[C@@H](N)Cc1ccccc1)[C@@H](C)CC)C(=O)N[C@H](C(=O)N[C@@H](CC(N)=O)C(=O)N[C@@H](CO)C(=O)N[C@@H](CC(C)C)C(=O)N[C@@H](Cc1ccccc1)C(=O)NCC(=O)N[C@@H](CCCN=C(N)N)C(=O)O)[C@@H](C)CC [FIFPKKNIINSLFGR]
- MIC [9]: 8.92 µM (≈ 16 µg/mL)
- MIC [4]: > 70.2 µM
- MIC [8]: 8.92 µM (≈ 16 µg/mL)
- MIC [10]: 8.92 µM (≈ 16 µg/mL)

SMILES: CC[C@H](C)[C@H](NC(=O)[C@H](CCCCN)NC(=O)[C@@H](NC(=O)[C@@H](NC(=O)[C@H](CCCCN)NC(=O)[C@H](CCCCN)NC(=O)[C@@H](NC(=O)[C@@H](NC(=O)[C@H](CCCCN)NC(=O)[C@H](CCCCN)NC(=O)[C@@H](NC(=O)[C@@H](N)CCCCN)[C@@H](C)CC)[C@@H](C)CC)[C@@H](C)CC)[C@@H](C)CC)[C@@H](C)CC)C(N)=O [KIKKIIKKIIKI]
- MIC [1]: 15.1 µM (≈ 22.1 µg/mL)
- MIC [12]: 339 µM (≈ 497 µg/mL)
- MIC [4]: 219 µM (≈ 321 µg/mL)
- MIC [13]: 9 µM (≈ 13.2 µg/mL)

SMILES: CC(C)[C@H](N)C(=O)N[C@@H](CCCCN)C(=O)N[C@@H](Cc1c[nH]c2ccccc12)C(=O)N[C@@H](CCCN=C(N)N)C(=O)N[C@@H](Cc1c[nH]c2ccccc12)C(=O)N[C@@H](CCCCN)C(=O)N[C@@H](CCCCN)C(=O)N[C@@H](Cc1c[nH]c2ccccc12)C(=O)N[C@@H](CCCN=C(N)N)C(=O)N[C@@H](Cc1c[nH]c2ccccc12)C(=O)N[C@@H](CCCCN)C(=O)N[C@@H](Cc1c[nH]c2ccccc12)C(=O)N[C@@H](CCCCN)C(=O)N[C@@H](Cc1c[nH]c2ccccc12)C(=O)N[C@@H](CCCCN)C(=O)N[C@H](C(N)=O)C(C)C [VKWRWKKWRWKWKWKV]
- MIC [9]: ≥ 41.4 µM
- MIC [4]: > 41.4 µM
- MIC (Bacillus subtilis): ≥ 41.4 µM
- MIC [11]: ≥ 41.4 µM

SMILES: CC[C@H](C)[C@H](NC(=O)CN)C(=O)N[C@H](C(=O)N[C@@H](C)C(=O)NCC(=O)N[C@H](C(=O)N[C@H](C(=O)N[C@H](C(=O)N[C@@H](C)C(=O)N[C@H](C(=O)N[C@@H](CCCCN)C(=O)N[C@@H](CCCCN)C(N)=O)[C@@H](C)CC)[C@@H](C)CC)[C@@H](C)CC)[C@@H](C)CC)[C@@H](C)CC [GIIAGIIIAIKK]
- MIC [1]: 8 µM (≈ 9.67 µg/mL)
- MIC [4]: > 128 µM

SMILES: CC[C@H](C)[C@H](NC(=O)[C@H](CCCCN)NC(=O)[C@H](CCCCN)NC(=O)[C@H](C)NC(=O)[C@@H](NC(=O)[C@H](C)NC(=O)[C@H](CC(C)C)NC(=O)[C@H](CC(C)C)NC(=O)[C@H](C)NC(=O)[C@H](CCCCN)NC(=O)[C@H](C)NC(=O)[C@H](CC(N)=O)NC(=O)[C@@H](N)CC(C)C)C(C)C)C(=O)N[C@@H](CC(C)C)C(N)=O [LNAKALLAVAKKIL]
- MIC [1]: 8 µM (≈ 11.7 µg/mL)
- MIC [4]: 8 µM (≈ 11.7 µg/mL)
- MIC [5]: 32 µM (≈ 46.9 µg/mL)
- MIC [8]: 32 µM (≈ 46.9 µg/mL)
- MIC [13]: 32 µM (≈ 46.9 µg/mL)

SMILES: CC[C@H](C)[C@@H]1NC(=O)[C@H](CO)NC(=O)[C@H](CCCCN)NC(=O)[C@H]([C@@H](C)O)NC(=O)[C@H](Cc2c[nH]c3ccccc23)NC(=O)[C@@H](N)CSSC[C@@H](C(=O)N[C@@H](Cc2ccccc2)C(=O)O)NC(=O)[C@@H]2CCCN2C(=O)[C@H](CCCCN)NC(=O)[C@@H]2CCCN2C(=O)[C@@H]2CCCN2C1=O [CWTKSIPPKPCF]
- MIC [9]: 13.8 µM (≈ 19.4 µg/mL)
- MIC [4]: 6.33 µM (≈ 8.89 µg/mL)
- MIC (Bacillus subtilis): 7.46 µM (≈ 10.5 µg/mL)
- MIC [11]: 4.24 µM (≈ 5.95 µg/mL)

SMILES: CC(C)[C@H](N)C(=O)N[C@@H](CCCCN)C(=O)N[C@@H](Cc1c[nH]c2ccccc12)C(=O)N[C@@H](CCCN=C(N)N)C(=O)N[C@@H](Cc1c[nH]c2ccccc12)C(=O)N[C@@H](CCCCN)C(=O)N[C@@H](Cc1c[nH]c2ccccc12)C(=O)N[C@@H](CCCCN)C(=O)N[C@@H](Cc1c[nH]c2ccccc12)C(=O)N[C@@H](CCCN=C(N)N)C(=O)N[C@@H](Cc1c[nH]c2ccccc12)C(=O)N[C@@H](CCCCN)C(=O)N[C@@H](Cc1c[nH]c2ccccc12)C(=O)N[C@@H](CCCCN)C(=O)N[C@@H](Cc1c[nH]c2ccccc12)C(=O)N[C@@H](CCCCN)C(=O)N[C@H](C(N)=O)C(C)C [VKWRWKWKWRWKWKWKV]
- MIC [9]: ≥ 38.4 µM
- MIC [4]: > 38.4 µM
- MIC (Bacillus subtilis): ≥ 38.4 µM
- MIC [11]: ≥ 38.4 µM

SMILES: CC[C@H](C)[C@H](NC(=O)CN)C(=O)N[C@@H](CC(C)C)C(=O)N[C@@H](CCCCN)C(=O)N[C@@H](CCCCN)C(=O)N[C@H](C(=O)N[C@@H](CC(C)C)C(=O)N[C@@H](CCCCN)C(=O)N[C@@H](CCCCN)C(=O)N[C@H](C(=O)N[C@@H](CC(C)C)C(=O)N[C@@H](CCCCN)C(=O)N[C@@H](CCCCN)C(=O)N[C@@H](CC(C)C)C(N)=O)[C@@H](C)CC)[C@@H](C)CC [GILKKILKKILKKL]
- MIC [1]: 1.6 µM (≈ 2.62 µg/mL)
- MIC [12]: 5.2 µM (≈ 8.5 µg/mL)
- MIC [4]: 9.3 µM (≈ 15.2 µg/mL)
- MIC [13]: 5.8 µM (≈ 9.48 µg/mL)

SMILES: CC[C@H](C)[C@H](NC(=O)[C@H](CC(C)C)NC(=O)[C@@H](NC(=O)[C@H](Cc1ccccc1)NC(=O)[C@H](CC(C)C)NC(=O)CN)[C@@H](C)O)C(=O)N[C@@H](CCCCN)C(=O)NCC(=O)N[C@@H](C)C(=O)N[C@@H](Cc1ccc(O)cc1)C(=O)N[C@@H](CCCCN)C(=O)N[C@@H](CC(C)C)C(=O)N[C@@H](CC(=O)O)C(=O)N[C@@H](C)C(=O)N1CCC[C@H]1C(=O)N[C@H](C(=O)N[C@H](C(=O)N[C@@H](C)C(=O)N[C@@H](CS)C(=O)N[C@@H](CC(N)=O)C(=O)O)C(C)C)[C@@H](C)O [GLFTLIKGAYKLDAPTVACN]
- MIC [9]: 9.59 µM (≈ 20.1 µg/mL)
- MIC [4]: 19.2 µM (≈ 40.2 µg/mL)
- MIC [8]: 9.59 µM (≈ 20.1 µg/mL)
- MIC [10]: 19.2 µM (≈ 40.2 µg/mL)

SMILES: CC[C@H](C)[C@H](NC(=O)CN)C(=O)N[C@@H](CCCN=C(N)N)C(=O)N[C@@H](CCCN=C(N)N)C(=O)NCC(=O)N[C@H](C(=O)N[C@@H](CCCN=C(N)N)C(=O)N[C@@H](CCCN=C(N)N)C(=O)N[C@H](C(=O)N[C@H](C(=O)N[C@@H](CCCCN)C(=O)N[C@@H](CCCN=C(N)N)C(N)=O)[C@@H](C)CC)[C@@H](C)CC)[C@@H](C)CC [GIRRGIRRIIKR]
- MIC [1]: ≥ 128 µM
- MIC [4]: > 128 µM

SMILES: CC[C@H](C)[C@H](NC(=O)[C@H](CCCN=C(N)N)NC(=O)[C@H](CCCN=C(N)N)NC(=O)[C@H](Cc1ccccc1)NC(=O)[C@H](Cc1ccccc1)NC(=O)CN)C(=O)N[C@@H](CCCN=C(N)N)C(=O)N[C@H](C(=O)N[C@@H](Cc1ccccc1)C(=O)N[C@@H](Cc1ccccc1)C(N)=O)[C@@H](C)O [GFFRRIRTFF]
- MIC [1]: 8 µM (≈ 10.8 µg/mL)
- MIC [2]: 32 µM (≈ 43.1 µg/mL)
- MIC [3]: 4 µM (≈ 5.38 µg/mL)
- MIC [4]: 32 µM (≈ 43.1 µg/mL)
- MIC [5]: 32 µM (≈ 43.1 µg/mL)
- MIC [6]: 32 µM (≈ 43.1 µg/mL)
- MIC [7]: 32 µM (≈ 43.1 µg/mL)
- MIC [8]: 8 µM (≈ 10.8 µg/mL)
